# Tested on: production of CD69 by B lymphocytes in human whole blood
# Assay: CD69 Whole Blood Assay (CD69 Hu Blood FACS)
# Assay type: cell-based
# Conditions: Lymphocyte, stimulated with goat F(ab')2 anti-human IgM, 20 hours, CD69 positive of CD20 positive cells
# From the text: A CD69 Whole Blood Assay can be conducted on Formula I compounds to determine the ability of compounds to inhibit the production of CD69 by B lymphocytes in human whole blood activated by crosslinking surface IgM with goat F(ab′)2 anti-human IgM (Example 907). CD69 is a type II C-type lectin involved in lymphocyte migration and cytokine secretion. CD69 expression represents one of the earliest available indicators of leukocyte activation and its rapid induction occurs through transcriptional activation (Vazquez et al (2009) Jour. of Immunology Published Oct. 19, 2009, doi:10.4049/jimmunol.0900839). Concentration-dependent inhibition of antigen receptor stimulation by selective Btk inhibitors induces cell surface expression of the lymphocyte activation marker CD69 (Honigberg et al (2010) Proc. Natl. Acad. Sci. 107(29):13075-13080). Thus, CD69 inhibition by selective Btk inhibitors may be correlated with therapeutic efficacy of certain B-cell disorders.
# Human blood is obtained from healthy volunteers, with the following restrictions: 1 week drug-free, non-smokers. Blood (approximately 20 mls to test 8 compounds) is collected by venipuncture into Vacutainer® (Becton, Dickinson and Co.) tubes with sodium heparin.
# Solutions of Formula I compounds at 10 mM in DMSO are diluted 1:10 in 100% DMSO, then are diluted by three-fold serial dilutions in 100% DMSO for a ten point dose-response curve. The compounds are further diluted 1:10 in PBS and then an aliquot of 5.5 μl of each compound is added in duplicate to a 2 ml 96-well plate; 5.5 μl of 10% DMSO in PBS is added as control and no-stimulus wells. Human whole blood—HWB (100 μl) is added to each well. After mixing the plates are incubated at 37° C., 5% CO2, 100% humidity for 30 minutes. Goat F(ab′)2 anti-human IgM (10 μl of a 500 μg/ml solution, 50 μg/ml final) is added to each well (except the no-stimulus wells) with mixing and the plates are incubated for an additional 20 hours. At the end of the 20 hour incubation, samples are incubated with fluorescent labeled antibodies for 30 minutes, at 37° C., 5% CO2, 100% humidity. Include induced control, unstained and single stains for compensation adjustments and initial voltage settings. Samples are then lysed with PharM Lyse™ (BD Biosciences Pharmingen) according to the manufacturer's instructions. Samples are then transferred to a 96 well plate suitable to be run on the BD Biosciences HTS 96 well system on the LSRII machine. Data acquired and Mean Fluorescence Intensity values were obtained using BD Biosciences DIVA Software. Results are initially analyzed by FACS analysis software (Flow Jo).
row,SMILES,IC70 [nM]
1,"C[C@@H]1CN(C)CCN1c1ccc(Nc2cc(-c3cc(F)cc(N4CCn5c(cc6c5CCCC6)C4=O)c3CO)cn(C)c2=O)nc1 [Compound 109, (R)-2-(3-(5-(5-(2,4-dimethylpiperazin-1-yl)pyridin-2-ylamino)-1-methyl-6-oxo-1,6-dihydropyridin-3-yl)-5-fluoro-2-(hydroxymethyl)phenyl)-3,4,6,7,8,9-hexahydropyrazino[1,2-a]indol-1(2H)-one]",29
2,"C[C@@H]1CN(c2ccc(Nc3cc(-c4cc(F)cc(N5CCn6c(cc7c6CCCC7)C5=O)c4CO)cn(C)c3=O)nc2)[C@@H](C)CN1C1COC1 [Compound 104, 2-(3-(5-(5-((2S,5R)-2,5-dimethyl-4-(oxetan-3-yl)piperazin-1-yl)pyridin-2-ylamino)-1-methyl-6-oxo-1,6-dihydropyridin-3-yl)-5-fluoro-2-(hydroxymethyl)phenyl)-3,4,6,7,8,9-hexahydropyrazino[1,2-a]indol-1(2H)-one]",15
3,"C[C@H]1CN(C2COC2)CCN1c1ccc(Nc2cc(-c3cc(F)cc(-n4ncc5c6c(sc5c4=O)CCCC6)c3CO)cn(C)c2=O)nc1 [Compound 102, (S)-5-[5-fluoro-2-(hydroxymethyl)-3(1-methyl-5-(5-(2-methyl-4-(oxetan-3-yl)piperazin-1-yl)pyridin-2-ylamino)-6-oxo-1,6-dihydropyridin-3-yl)phenyl]-8-thia-4,5-diazatricyclo[7.4.0.02,7]trideca-1(9),2(7),3-trien-6-one]",31
4,"C[C@H]1CN(c2ccc(Nc3cc(-c4cc(F)cc(N5CCn6c(cc7c6CCCC7)C5=O)c4CO)cn(C)c3=O)nc2)CCN1C [Compound 107, (S)-2-(3-(5-(5-(3,4-dimethylpiperazin-1-yl)pyridin-2-ylamino)-1-methyl-6-oxo-1,6-dihydropyridin-3-yl)-5-fluoro-2-(hydroxymethyl)phenyl)-3,4,6,7,8,9-hexahydropyrazino[1,2-a]indol-1(2H)-one]",44
5,CC[C@H]1CN(C2COC2)CCN1c1ccc(Nc2cc(-c3cc(F)cc(N4CCn5c(cc6c5CCCC6)C4=O)c3CO)cn(C)c2=O)nc1 [Compound 105],8
6,"CN1CCN(c2ccc(Nc3cc(-c4cc(F)cc(N5CCn6c(cc7c6CCCC7)C5=O)c4CO)cn(C)c3=O)nc2)CC1CF (stereo not drawn) [Compound 111, 2-(5-fluoro-3-(5-(5-(3-(fluoromethyl)-4-methylpiperazin-1-yl)pyridin-2-ylamino)-1-methyl-6-oxo-1,6-dihydropyridin-3-yl)-2-(hydroxymethyl)phenyl)-3,4,6,7,8,9-hexahydropyrazino[1,2-a]indol-1(2H)-one]",92
7,"C[C@H]1CN(C)CCN1c1ccc(Nc2cc(-c3cc(F)cc(N4CCn5c(cc6c5CCCC6)C4=O)c3CO)cn(C)c2=O)nc1 [Compound 110, (S)-2-(3-(5-(5-(2,4-dimethylpiperazin-1-yl)pyridin-2-ylamino)-1-methyl-6-oxo-1,6-dihydropyridin-3-yl)-5-fluoro-2-(hydroxymethyl)phenyl)-3,4,6,7,8,9-hexahydropyrazino[1,2-a]indol-1(2H)-one]",6
8,"CN1C2COCC1CN(c1ccc(Nc3cc(-c4cc(F)cc(N5CCn6c(cc7c6CCCC7)C5=O)c4CO)cn(C)c3=O)nc1)C2 [Compound 112, 2-(5-fluoro-2-(hydroxymethyl)-3-(1-methyl-5-(5-(9-methyl-7-oxa-3,9-diaza-bicyclo[3.3.1]nonan-3-yl)pyridin-2-ylamino)-6-oxo-1,6-dihydropyridin-3-yl)phenyl)-3,4,6,7,8,9-hexahydropyrazino[1,2-a]indol-1(2H)-one]",170
9,"C[C@@H]1CN(c2ccc(Nc3cc(-c4cc(F)cc(N5CCn6c(cc7c6CCCC7)C5=O)c4CO)cn(C)c3=O)nc2)CCN1C [Compound 108, (R)-2-(3-(5-(5-(3,4-dimethylpiperazin-1-yl)pyridin-2-ylamino)-1-methyl-6-oxo-1,6-dihydropyridin-3-yl)-5-fluoro-2-(hydroxymethyl)phenyl)-3,4,6,7,8,9-hexahydropyrazino[1,2-a]indol-1(2H)-one]",23
10,"C[C@H]1CN(C2COC2)CCN1c1ccc(Nc2cc(-c3cc(F)cc(N4CCc5c(cc6n5CCCC6)C4=O)c3CO)cn(C)c2=O)nc1 [Compound 101, (S)-2-(5-fluoro-2-(hydroxymethyl)-3-(1-methyl-5-(5-(2-methyl-4-(oxetan-3-yl)piperazin-1-yl)pyridin-2-ylamino)-6-oxo-1,6-dihydropyridin-3-yl)phenyl)-3,4,6,7,8,9-hexahydropyrido[3,4-b]indolizin-1(2H)-one]",33.8
11,"C[C@H]1CN(C2COC2)CCN1c1ccc(Nc2cc(-c3cc(F)cc(N4CCn5c(cc6c5CCCC6)C4=O)c3CO)cn(C)c2=O)nc1 [Compound 106, (S)-2-(5-fluoro-2-(hydroxymethyl)-3-(1-methyl-5-(5-(2-methyl-4-(oxetan-3-yl)piperazin-1-yl)pyridin-2-ylamino)-6-oxo-1,6-dihydropyridin-3-yl)phenyl)-3,4,6,7,8,9-hexahydropyrazino[1,2-a]indol-1(2H)-one]",19
12,"C[C@H]1CN(C2COC2)CCN1c1ccc(Nc2cc(-c3cc(F)cc(N4CCn5c(cc6c5CC(C)(C)C6)C4=O)c3CO)cn(C)c2=O)nc1 [Compound 103, (2S)-10-[5-fluoro-2-(hydroxymethyl)-3-[1-methyl-5-({5-[2-methyl-4-(oxetan-3-yl)piperazin-1-yl]pyridine-2-yl}amino)-6-oxo-1,6-dihydropyridin-3-yl]phenyl]-4,4-dimethyl-1,10-diazatricyclo[6.4.0.02,6]dodeca-2(6),7-dien-9-one]",14.5

# Same assay, conditions: stimulated with goat F(ab')2 anti-human IgM, 20 hours, CD69 positive of CD20 positive cells, Table 2, unit inferred
row,SMILES,CD69 Hu Blood FACS (IC70) [nM]
1,"C[C@H]1CN(C2COC2)CCN1c1ccc(Nc2cc(-c3cc(F)cc(-n4ncc5c(cc6n5CCCC6)c4=O)c3CO)cn(C)c2=O)nc1 [Compound 127, 2-[5-fluoro-2-(hydroxymethyl)-3-[1-methyl-5-[[5-[(2S)-2-methyl-4-(oxetan-3-yl)piperazin-1-yl]-2-pyridyl]amino]-6-oxo-3-pyridyl]phenyl]-6,7,8,9-tetrahydropyridazino[4,5-b]indolizin-1-one]",51
2,"C[C@H]1CN(C2COC2)CCN1c1ccc(Nc2cc(-c3cccc(-n4ncc5c6c(sc5c4=O)CCCC6)c3CO)cn(C)c2=O)nc1 [Compound 130, 3-[2-(hydroxymethyl)-3-[1-methyl-5-[[5-[(2S)-2-methyl-4-(oxetan-3-yl)piperazin-1-yl]-2-pyridyl]amino]-6-oxo-3-pyridyl]phenyl]-6,7,8,9-tetrahydrobenzothiopheno[2,3-d]pyridazin-4-one]",35.4
3,"C[C@@H]1CN(c2ccc(Nc3cc(-c4cc(F)cc(N5CCc6c(cc7n6CCCC7)C5=O)c4CO)cn(C)c3=O)nc2)[C@@H](C)CN1C1COC1 [Compound 126, 2-[3-[5-[[5-[(2S,5R)-2,5-dimethyl-4-(oxetan-3-yl)piperazin-1-yl]-2-pyridyl]amino]-1-methyl-6-oxo-3-pyridyl]-5-fluoro-2-(hydroxymethyl)phenyl]-3,4,6,7,8,9-hexahydropyrido[3,4-b]indolizin-1-one]",57.1
4,"C[C@H]1CN(C2COC2)CCN1c1ccc(Nc2cc(-c3cc(F)cc(N4CCn5c(cc6c5CC(C)(C)C6)C4=O)c3C(=O)O)cn(C)c2=O)nc1 [Compound 128, 2-(7,7-dimethyl-4-oxo-1,2,6,8-tetrahydrocyclopenta[3,4]pyrrolo[3,5-b]pyrazin-3-yl)-4-fluoro-6-[1-methyl-5-[[5-[(2S)-2-methyl-4-(oxetan-3-yl)piperazin-1-yl]-2-pyridyl]amino]-6-oxo-3-pyridyl]benzoic acid]",5000
5,"CNC(=O)c1c(-c2cc(Nc3ccc(N4CCN(C5COC5)C[C@@H]4C)cn3)c(=O)n(C)c2)cc(F)cc1N1CCn2c(cc3c2CC(C)(C)C3)C1=O [Compound 129, 2-(7,7-dimethyl-4-oxo-1,2,6,8-tetrahydrocyclopenta[3,4]pyrrolo[3,5-b]pyrazin-3-yl)-4-fluoro-N-methyl-6-[1-methyl-5-[[5-[(2S)-2-methyl-4-(oxetan-3-yl)piperazin-1-yl]-2-pyridyl]amino]-6-oxo-3-pyridyl]benzamide]",472
6,"C[C@H]1CN(C2COC2)CCN1c1ccc(Nc2cc(-c3cc(F)cc(-n4ncc5c6c(sc5c4=O)CC(C)(C)C6)c3CO)cn(C)c2=O)nc1 [Compound 131, 3-[5-fluoro-2-(hydroxymethyl)-3-[1-methyl-5-[[5-[(2S)-2-methyl-4-(oxetan-3-yl)piperazin-1-yl]-2-pyridyl]amino]-6-oxo-3-pyridyl]phenyl]-7,7-dimethyl-6,8-dihydrocyclopenta[3,4]thieno[1,3-d]pyridazin-4-one]",34.9

# — patent US9115152B2, “Alkylated piperazine compounds” (Genentech, Inc., priority 2011, dated 2015)
